One experiment has as its target KRAS (G12C)::SOS1 (Homo sapiens (Human), UniProt P01116, C118S/C51S/C80L/G12C). Kind of experiment: KRAS::SOS1 AlphaScreen binding assay, KRAS G12C. In outline: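 AlphaScreen measurement of compound disruption of biotinylated, GDP-loaded KRAS 1-169 (10 nM; G12C 7.5 nM) binding to GST-SOS1 564-1049 (5 nM with G12D/G12C, 10 nM otherwise), with 10 μM GDP in PBS/0.1% BSA/0.05% Tween 20. Timing was 30 min compound preincubation, then 60 min with beads at room temperature; top concentration 100 μM, 4-parameter IC50.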
For orientation: In Alpha technology, singlet oxygen from a donor bead excites a nearby acceptor bead.

The subject of experiment [1] is KRAS G12V-dependent Ba/F3 cells. Kind of experiment: Ba/F3 proliferation assay, KRAS G12V.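 Further: proliferation IC50 in KRAS G12V-dependent Ba/F3 cells read by AlamarBlue.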 The note with it: Mus musculus, BaF3, 72 h, AlamarBlue. In kind it is cell-based. Put shortly:
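Ba/F3 cells retrovirally transduced with KRAS G12 mutants, puromycin-selected and grown without IL-3, so proliferation depends on the mutant KRAS. Compounds tested in technical duplicates; viability read by AlamarBlue fluorescence, with curve fitting for potency.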
Background: Alamar Blue is a resazurin reagent that responds to reducing activity.

pIC50: −log10 of the molar value.

The pIC50 is the negative decadic logarithm of the IC50, by convention in mol/L. Low values mean a high IC50, high ones a low IC50.

Sequence of KRAS (G12C)::SOS1 (P01116 other isoform, or with tags, fused parts or gaps G12C/C51S/C80L/C118S): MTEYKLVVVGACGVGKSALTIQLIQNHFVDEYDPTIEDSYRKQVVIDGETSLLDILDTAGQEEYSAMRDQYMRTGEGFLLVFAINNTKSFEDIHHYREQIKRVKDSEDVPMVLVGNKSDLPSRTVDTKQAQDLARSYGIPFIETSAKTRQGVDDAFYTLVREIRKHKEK

In the case of `C[C@H](Oc1cc(-c2ccc(N)nc2)nc(-c2noc3c2CCC[C@@]32CCCc3sc(N)c(C#N)c32)n1)[C@@H]1CCCN1C` [II-101], the pIC50 at KRAS (G12C)::SOS1 is 8.70; in experiment [1], 7.55.
In the case of `C[C@H](Oc1cc(-c2ccn3ncnc3c2)nc(-c2noc3c2CCC[C@@]32CCCc3sc(N)c(C#N)c32)n1)[C@@H]1CCCN1C` [II-104], the pIC50 is 8.70 on KRAS (G12C)::SOS1 and 7.92 in experiment [1].
For `C[C@H](Oc1cc(N2CCNC[C@@]23CCOC3)nc(-c2noc3c2CCC[C@@]32CCCc3sc(N)c(C#N)c32)n1)[C@@H]1CCCN1C` [II-51] the same measures were 8.40 and 6.16.
Take `C[C@H](Oc1cc(N2CCNCC23CCOC3)nc(-c2onc3c2CCC[C@@]32CCCc3sc(N)c(C#N)c32)n1)[C@@H]1CCCN1C` (some centres unmarked) [I-10]: the pIC50 at KRAS (G12C)::SOS1 was 8.52; in experiment [1], 6.61.
For the molecule `C[C@H](Oc1cc([C@@H]2CCOC2)nc(-c2noc3c2CCC[C@@]32CCCc3sc(N)c(C#N)c32)n1)[C@@H]1CCCN1C` [II-94], the values for the pIC50 (on KRAS (G12C)::SOS1; in experiment [1]) were 9.00 and 8.52, respectively.
Turning to `C[C@H](Oc1cc(-n2ccc(-c3ccccn3)n2)nc(-c2noc3c2CCC[C@@]32CCCc3sc(N)c(C#N)c32)n1)[C@@H]1CCCN1C` [II-119], the pIC50 is 8.70 on KRAS (G12C)::SOS1 and 8.22 in experiment [1].
Regarding `C[C@H](Oc1cc(-n2cccc3cnnc2-3)nc(-c2noc3c2CCC[C@@]32CCCc3sc(N)c(C#N)c32)n1)[C@@H]1CCCN1C` [II-92], the negative logarithm of the IC50 (pIC50) is 8.30 at KRAS (G12C)::SOS1 and 7.57 in experiment [1].
Taken in the same sequence, the figures for `C[C@H](Oc1cc(N2CCC(C#N)C2)nc(-c2noc3c2CCC[C@@]32CCCc3sc(N)c(C#N)c32)n1)[C@@H]1CCCN1C` (some centres unmarked) [II-99] were 8.52 and 7.46.
In the case of `C[C@H](Oc1cc(-c2cn(C3COC3)nn2)nc(-c2noc3c2CCC[C@@]32CCCc3sc(N)c(C#N)c32)n1)[C@@H]1CCCN1C` [II-100], the negative-log IC50 (pIC50) on KRAS (G12C)::SOS1 is 8.52; in experiment [1], 7.28.
Taken in the same sequence, the figures for `CC(=O)N1CC=C(c2cc(O[C@@H](C)[C@@H]3CCCN3C)nc(-c3noc4c3CCC[C@@]43CCCc4sc(N)c(C#N)c43)n2)CC1` [II-81] were 8.52 and 7.89.
As for `C[C@H](Oc1cc(-n2cncn2)nc(-c2noc3c2CCC[C@@]32CCCc3sc(N)c(C#N)c32)n1)[C@@H]1CCCN1C` [II-70], the pIC50 at KRAS (G12C)::SOS1 is 8.70; in experiment [1], 8.30.
Taken in the same sequence, the figures for `C[C@H](Oc1cc(-c2ccn(-c3ccsc3)n2)nc(-c2noc3c2CCC[C@@]32CCCc3sc(N)c(C#N)c32)n1)[C@@H]1CCCN1C` [II-84] were 8.52 and 7.77.
Taken in the same sequence, the figures for `Cc1cn(C)nc1-c1cc(O[C@@H](C)[C@@H]2CCCN2C)nc(-c2noc3c2CCC[C@@]32CCCc3sc(N)c(C#N)c32)n1` [II-68] were 8.70 and 7.64.
Taken in the same sequence, the figures for `C[C@H](Oc1cc(N2CCc3cccnc32)nc(-c2noc3c2CCC[C@@]32CCCc3sc(N)c(C#N)c32)n1)[C@@H]1CCCN1C` [II-90] were 8.15 and 6.94.
With `CO[C@@H]1C[C@@H]([C@H](C)Oc2cc(-n3ccnc3)nc(-c3noc4c3CCC[C@@]43CCCc4sc(N)c(C#N)c43)n2)N(C)C1` [II-58], the values for the negative-log IC50 (pIC50) (on KRAS (G12C)::SOS1; in experiment [1]) were 8.70 and 8.05, respectively.
Taken in the same sequence, the figures for `COC(=O)c1ccc(-c2cc(O[C@@H](C)[C@@H]3CCCN3C)nc(-c3noc4c3CCC[C@@]43CCCc4sc(N)c(C#N)c43)n2)o1` [II-114] were 8.70 and 8.15.
For `C[C@H](Oc1cc(-c2cn[nH]c2)nc(-c2noc3c2CCC[C@@]32CCCc3sc(N)c(C#N)c32)n1)[C@@H]1CCCN1C` [II-87] the same measures were 8.52 and 7.60.
For the molecule `C[C@H](Oc1cc(-n2cc(-c3cccnc3)nn2)nc(-c2noc3c2CCC[C@@]32CCCc3sc(N)c(C#N)c32)n1)[C@@H]1CCCN1C` [II-123], the pIC50 was 8.70 at KRAS (G12C)::SOS1 and 7.62 in experiment [1].
For `C[C@H](Oc1cc(C2CCOCC2)nc(-c2noc3c2CCC[C@@]32CCCc3sc(N)c(C#N)c32)n1)[C@@H]1CCCN1C` [II-76] the same measures were 8.70 and 7.72.
For the molecule `C[C@H](Oc1cc(-c2ccn(C3COC3)n2)nc(-c2noc3c2CCC[C@@]32CCCc3sc(N)c(C#N)c32)n1)[C@@H]1C[C@H](F)CN1C` [II-83], the figures for the negative-log IC50 (pIC50) (at KRAS (G12C)::SOS1; in experiment [1]) were 8.30 and 7.74, respectively.
Take `C[C@H](Oc1cc(-n2cc(Cn3ccnc3)nn2)nc(-c2noc3c2CCC[C@@]32CCCc3sc(N)c(C#N)c32)n1)[C@@H]1CCCN1C` [II-113]: the pIC50 is 8.70 on KRAS (G12C)::SOS1 and 7.48 in experiment [1].
Taken in the same sequence, the figures for `C[C@H](Oc1cc(-n2ccc(C#N)n2)nc(-c2noc3c2CCC[C@@]32CCCc3sc(N)c(C#N)c32)n1)[C@@H]1CCCN1C` [II-102] were 8.70 and 8.40.

The record behind these values is patent US20240174690A1, “ANNULATED 2-AMINO-3-CYANO THIOPHENES AND DERIVATIVES FOR THE TREATMENT OF CANCER” (BOEHRINGER INGELHEIM INTERNATIONAL GMBH, priority 2021, published 2024).
